Measured values reported in the supplement of paper PMC10307832.

Legend:
Assay in all cases: relative viability (nuclei count vs DMSO), 5 days (fraction); higher = more cells survive
UMC-11 = system: UMC-11
Outline: (§1)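 After 5 days of treatment, lung cancer cells in 1536-well plates were fixed and stained in a single step (final 0.05% Triton X-100, 1% formaldehyde, 1 ug/ml Hoechst) and their nuclei counted on 4× images. Treatment had been applied by pin tool the day after seeding as one drug alone or as a fixed anchor-drug dose with five library-drug doses (not always all listed) in √10 steps. Relative viability is the nuclei count of treated wells divided by that of vehicle wells, and values are medians of duplicate plates.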

HCC-366 = system: HCC-366
Outline: as §1

NCI-H2228 = system: NCI-H2228
Outline: as §1

NCI-H1944 = system: NCI-H1944
Outline: as §1

NCI-H2126 = system: NCI-H2126
Outline: as §1

NCI-H2009 = system: NCI-H2009
Outline: as §1

ChaGo-K-1 = system: ChaGo-K-1
Outline: as §1

HCC-78 = system: HCC-78
Outline: as §1

A-427 = system: A-427
Outline: as §1

NCI-H2405 = system: NCI-H2405
Outline: as §1

ABC-1 = system: ABC-1
Outline: as §1

NCI-H2023 = system: NCI-H2023
Outline: as §1

NCI-H1993 = system: NCI-H1993
Outline: as §1

NCI-H838 = system: NCI-H838
Outline: as §1

NCI-H1734 = system: NCI-H1734
Outline: as §1

EMC-BAC-2 = system: EMC-BAC-2
Outline: as §1

NCI-H23 = system: NCI-H23
Outline: as §1

SK-LU-1 = system: SK-LU-1
Outline: as §1

HARA = system: HARA
Outline: as §1

COR-L23 = system: COR-L23
Outline: as §1

HCC-15 = system: HCC-15
Outline: as §1

NCI-H1793 = system: NCI-H1793
Outline: as §1

LC-2-ad = system: LC-2-ad
Outline: as §1

In the case of `NC(=O)Nc1cc(-c2cccc(F)c2)sc1C(=O)N[C@H]1CCCNC1` [AZD7762] + O=C(CCCCCCC(=O)Nc1ccccc1)NO [Vorinostat] (partner 1 µM), the relative viability (UMC-11; first compound 0.01 µM) is reported as 0.373, the relative viability (UMC-11; first compound 0.03162 µM) is reported as 0.297 and the relative viability (UMC-11; first compound 0.1 µM) is reported as 0.324. For the same molecule, the relative viability (UMC-11; first compound 0.3162 µM) was 0.271, the relative viability (UMC-11; first compound 1 µM) was 0.194 and the relative viability (HCC-366; first compound 0.01 µM) was 0.455. For the same molecule, the relative viability (HCC-366; first compound 0.03162 µM) was 0.301, the relative viability (HCC-366; first compound 0.1 µM) was 0.39 and the relative viability (HCC-366; first compound 0.3162 µM) was 0.188. The relative viability (HCC-366; first compound 1 µM) was 0.104, the relative viability (NCI-H2228; first compound 0.01 µM) was 1.06 and the relative viability (NCI-H2228; first compound 0.03162 µM) was 0.443. For the same molecule, the relative viability (NCI-H2228; first compound 0.1 µM) was 0.59, the relative viability (NCI-H2228; first compound 0.3162 µM) was 0.383 and the relative viability (NCI-H2228; first compound 1 µM) was 0.299. The relative viability (NCI-H1944; first compound 0.01 µM) was 0.544, the relative viability (NCI-H1944; first compound 0.03162 µM) was 0.654 and the relative viability (NCI-H1944; first compound 0.1 µM) was 0.611. The relative viability (NCI-H1944; first compound 0.3162 µM) was 0.568, the relative viability (NCI-H1944; first compound 1 µM) was 0.295 and the relative viability (NCI-H2126; first compound 0.01 µM) was 0.688. For the same molecule, the relative viability (NCI-H2126; first compound 0.03162 µM) was 0.867, the relative viability (NCI-H2126; first compound 0.1 µM) was 0.735 and the relative viability (NCI-H2126; first compound 0.3162 µM) was 0.773. For the same molecule, the relative viability (NCI-H2126; first compound 1 µM) was 0.775, the relative viability (NCI-H2009; first compound 0.01 µM) was 0.794 and the relative viability (NCI-H2009; first compound 0.03162 µM) was 0.733. It also gave a relative viability (NCI-H2009; first compound 0.1 µM) of 0.693, a relative viability (NCI-H2009; first compound 0.3162 µM) of 0.688 and a relative viability (NCI-H2009; first compound 1 µM) of 0.625. For the same molecule, the relative viability (ChaGo-K-1; first compound 0.01 µM) was 0.744, the relative viability (ChaGo-K-1; first compound 0.03162 µM) was 0.743 and the relative viability (ChaGo-K-1; first compound 0.1 µM) was 0.739. The relative viability (ChaGo-K-1; first compound 0.3162 µM) was 0.785, the relative viability (ChaGo-K-1; first compound 1 µM) was 0.793 and the relative viability (HCC-78; first compound 0.01 µM) was 0.496. For the same molecule, the relative viability (HCC-78; first compound 0.03162 µM) was 0.469, the relative viability (HCC-78; first compound 0.1 µM) was 0.498 and the relative viability (HCC-78; first compound 0.3162 µM) was 0.425. It also gave a relative viability (HCC-78; first compound 1 µM) of 0.349, a relative viability (A-427; first compound 0.01 µM) of 0.875 and a relative viability (A-427; first compound 0.03162 µM) of 0.874. The relative viability (A-427; first compound 0.1 µM) was 0.857, the relative viability (A-427; first compound 0.3162 µM) was 0.728 and the relative viability (A-427; first compound 1 µM) was 0.41. It also gave a relative viability (NCI-H2405; first compound 0.01 µM) of 1.08, a relative viability (NCI-H2405; first compound 0.03162 µM) of 1.08 and a relative viability (NCI-H2405; first compound 0.1 µM) of 0.976. It also gave a relative viability (NCI-H2405; first compound 0.3162 µM) of 0.756, a relative viability (NCI-H2405; first compound 1 µM) of 0.521 and a relative viability (ABC-1; first compound 0.01 µM) of 0.847. It also gave a relative viability (ABC-1; first compound 0.03162 µM) of 1.47, a relative viability (ABC-1; first compound 0.1 µM) of 1.04 and a relative viability (ABC-1; first compound 0.3162 µM) of 0.976. For the same molecule, the relative viability (ABC-1; first compound 1 µM) was 0.314, the relative viability (NCI-H2023; first compound 0.01 µM) was 0.548 and the relative viability (NCI-H2023; first compound 0.03162 µM) was 0.415. For the same molecule, the relative viability (NCI-H2023; first compound 0.1 µM) was 0.257, the relative viability (NCI-H2023; first compound 0.3162 µM) was 0.184 and the relative viability (NCI-H2023; first compound 1 µM) was 0.0942. It also gave a relative viability (NCI-H1993; first compound 0.01 µM) of 0.764, a relative viability (NCI-H1993; first compound 0.03162 µM) of 0.729 and a relative viability (NCI-H1993; first compound 0.1 µM) of 0.725. For the same molecule, the relative viability (NCI-H1993; first compound 0.3162 µM) was 0.813, the relative viability (NCI-H1993; first compound 1 µM) was 0.391 and the relative viability (NCI-H838; first compound 0.01 µM) was 0.731. The relative viability (NCI-H838; first compound 0.03162 µM) was 0.726, the relative viability (NCI-H838; first compound 0.1 µM) was 0.76 and the relative viability (NCI-H838; first compound 0.3162 µM) was 0.745. The relative viability (NCI-H838; first compound 1 µM) was 0.272, the relative viability (NCI-H1734; first compound 0.01 µM) was 0.772 and the relative viability (NCI-H1734; first compound 0.03162 µM) was 0.723. For the same molecule, the relative viability (NCI-H1734; first compound 0.1 µM) was 0.738, the relative viability (NCI-H1734; first compound 0.3162 µM) was 0.415 and the relative viability (NCI-H1734; first compound 1 µM) was 0.251. The relative viability (EMC-BAC-2; first compound 0.01 µM) was 0.416, the relative viability (EMC-BAC-2; first compound 0.03162 µM) was 0.475 and the relative viability (EMC-BAC-2; first compound 0.1 µM) was 0.523. The relative viability (EMC-BAC-2; first compound 0.3162 µM) was 0.456, the relative viability (EMC-BAC-2; first compound 1 µM) was 0.456 and the relative viability (NCI-H23; first compound 0.01 µM) was 0.634. The relative viability (NCI-H23; first compound 0.03162 µM) was 0.503, the relative viability (NCI-H23; first compound 0.1 µM) was 0.582 and the relative viability (NCI-H23; first compound 0.3162 µM) was 0.248. The relative viability (NCI-H23; first compound 1 µM) was 0.149, the relative viability (SK-LU-1; first compound 0.01 µM) was 0.909 and the relative viability (SK-LU-1; first compound 0.03162 µM) was 0.663. It also gave a relative viability (SK-LU-1; first compound 0.1 µM) of 0.563, a relative viability (SK-LU-1; first compound 0.3162 µM) of 0.273 and a relative viability (SK-LU-1; first compound 1 µM) of 0.276. For the same molecule, the relative viability (HARA; first compound 0.01 µM) was 0.454, the relative viability (HARA; first compound 0.03162 µM) was 0.483 and the relative viability (HARA; first compound 0.1 µM) was 0.509. It also gave a relative viability (HARA; first compound 0.3162 µM) of 0.503, a relative viability (HARA; first compound 1 µM) of 0.451 and a relative viability (COR-L23; first compound 0.01 µM) of 0.562. It also gave a relative viability (COR-L23; first compound 0.03162 µM) of 0.423, a relative viability (COR-L23; first compound 0.1 µM) of 0.246 and a relative viability (COR-L23; first compound 0.3162 µM) of 0.129. It also gave a relative viability (COR-L23; first compound 1 µM) of 0.0864, a relative viability (HCC-15; first compound 0.01 µM) of 0.844 and a relative viability (HCC-15; first compound 0.03162 µM) of 0.691. For the same molecule, the relative viability (HCC-15; first compound 0.1 µM) was 0.908, the relative viability (HCC-15; first compound 0.3162 µM) was 0.734 and the relative viability (HCC-15; first compound 1 µM) was 0.723. The relative viability (NCI-H1793; first compound 0.01 µM) was 0.692, the relative viability (NCI-H1793; first compound 0.03162 µM) was 0.878 and the relative viability (NCI-H1793; first compound 0.1 µM) was 0.981. For the same molecule, the relative viability (NCI-H1793; first compound 0.3162 µM) was 0.953, the relative viability (NCI-H1793; first compound 1 µM) was 0.284 and the relative viability (LC-2-ad; first compound 0.01 µM) was 0.724. The relative viability (LC-2-ad; first compound 0.03162 µM) was 0.755, the relative viability (LC-2-ad; first compound 0.1 µM) was 0.749 and the relative viability (LC-2-ad; first compound 0.3162 µM) was 0.647. The relative viability (LC-2-ad; first compound 1 µM) was 0.448.
